Test results published in ChEMBL document CHEMBL2021921 (Bioorg Med Chem Lett, 2012).
Activity calls are given as the source filed them. The rule behind the calls is not given here. Where a SMILES comes first, the peptide text is derived from it. [ ]: non-standard residue; d: D form. The star is where a group is joined. Adenosine(5'-uronoyl) = Nc1ncnc2c1ncn2[C@@H]1O[C@H](C(=O)*)[C@@H](O)[C@H]1O; X1 = Nc1nccc(-c2ccc(C(=O)*)s2)n1; Ahx = NCCCCCC(=O)O

How the values were obtained:
[1] = target: Ribosomal protein S6 kinase beta-1 (Homo sapiens, UniProt P23443); test: Displacement of fluorescent-ARC-583/ARC-1042/ARC-1059 from His6-tagged recombinant human p70S6K by fluorescence anisotropy assay
[2] = target: T1, Rho-associated protein kinase 2 (Homo sapiens, UniProt O75116); test: Displacement of fluorescent-ARC-1063 from His6-tagged recombinant human ROCK2 by luminescence intensity assay
Target sequence in this assay (O75116 whole entry): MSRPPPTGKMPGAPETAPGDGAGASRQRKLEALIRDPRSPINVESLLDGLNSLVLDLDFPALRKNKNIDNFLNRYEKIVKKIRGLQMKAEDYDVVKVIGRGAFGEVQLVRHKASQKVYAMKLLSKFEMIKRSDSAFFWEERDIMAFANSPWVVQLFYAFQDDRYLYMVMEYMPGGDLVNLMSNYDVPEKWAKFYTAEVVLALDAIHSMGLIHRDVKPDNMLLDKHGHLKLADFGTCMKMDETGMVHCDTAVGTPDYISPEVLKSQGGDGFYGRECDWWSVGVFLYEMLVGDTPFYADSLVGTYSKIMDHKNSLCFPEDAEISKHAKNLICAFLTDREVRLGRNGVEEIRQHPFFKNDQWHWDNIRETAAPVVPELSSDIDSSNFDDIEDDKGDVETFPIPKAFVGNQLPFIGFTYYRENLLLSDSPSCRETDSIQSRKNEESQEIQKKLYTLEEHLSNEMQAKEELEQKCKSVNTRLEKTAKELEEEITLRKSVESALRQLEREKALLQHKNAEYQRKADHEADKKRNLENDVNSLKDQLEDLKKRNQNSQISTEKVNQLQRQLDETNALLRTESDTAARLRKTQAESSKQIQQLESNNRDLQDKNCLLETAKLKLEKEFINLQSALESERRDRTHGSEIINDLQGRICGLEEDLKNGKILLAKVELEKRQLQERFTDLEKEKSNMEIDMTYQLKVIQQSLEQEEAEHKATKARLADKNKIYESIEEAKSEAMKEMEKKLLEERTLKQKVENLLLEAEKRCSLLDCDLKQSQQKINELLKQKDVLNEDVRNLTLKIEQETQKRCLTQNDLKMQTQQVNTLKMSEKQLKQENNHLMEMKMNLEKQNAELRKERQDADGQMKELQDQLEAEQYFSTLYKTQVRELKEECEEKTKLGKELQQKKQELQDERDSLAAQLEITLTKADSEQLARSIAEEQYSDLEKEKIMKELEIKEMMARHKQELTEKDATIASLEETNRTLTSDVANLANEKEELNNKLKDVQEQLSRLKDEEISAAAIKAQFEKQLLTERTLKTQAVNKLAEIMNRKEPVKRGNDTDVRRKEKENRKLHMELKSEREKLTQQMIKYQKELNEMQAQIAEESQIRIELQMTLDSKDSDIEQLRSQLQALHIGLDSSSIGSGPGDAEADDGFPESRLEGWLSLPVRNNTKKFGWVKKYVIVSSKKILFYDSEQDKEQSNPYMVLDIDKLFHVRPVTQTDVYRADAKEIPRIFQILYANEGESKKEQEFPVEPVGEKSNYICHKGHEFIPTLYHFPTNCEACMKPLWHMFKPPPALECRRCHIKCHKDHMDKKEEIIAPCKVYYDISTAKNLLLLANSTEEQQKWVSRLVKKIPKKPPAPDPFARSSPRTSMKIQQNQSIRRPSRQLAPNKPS

[3] = target: Ribosomal protein S6 kinase alpha-5 (Homo sapiens, UniProt O75582); test: Displacement of fluorescent-ARC-583/ARC-1042/ARC-1059 from His6-tagged recombinant human MSK1 by fluorescence anisotropy assay
[4] = target: T1, Rho-associated protein kinase 2; test: Displacement of fluorescent-ARC-583/ARC-1042/ARC-1059 from His6-tagged recombinant human ROCK2 by fluorescence anisotropy assay
Target sequence in this assay (O75116 whole entry): as above

[5] = target: RAC-gamma serine/threonine-protein kinase (Homo sapiens, UniProt Q9Y243, S472D); test: Displacement of fluorescent-ARC-583/ARC-1042/ARC-1059 from His6-tagged recombinant human AKT3 S472D mutant by fluorescence anisotropy assay
[6] = target: T2, cGMP-dependent protein kinase 1 (Homo sapiens, UniProt Q13976); test: Displacement of fluorescent-ARC-583/ARC-1042/ARC-1059 from His6-tagged recombinant human PKG1alpha by fluorescence anisotropy assay
T2 sequence (Q13976 whole entry): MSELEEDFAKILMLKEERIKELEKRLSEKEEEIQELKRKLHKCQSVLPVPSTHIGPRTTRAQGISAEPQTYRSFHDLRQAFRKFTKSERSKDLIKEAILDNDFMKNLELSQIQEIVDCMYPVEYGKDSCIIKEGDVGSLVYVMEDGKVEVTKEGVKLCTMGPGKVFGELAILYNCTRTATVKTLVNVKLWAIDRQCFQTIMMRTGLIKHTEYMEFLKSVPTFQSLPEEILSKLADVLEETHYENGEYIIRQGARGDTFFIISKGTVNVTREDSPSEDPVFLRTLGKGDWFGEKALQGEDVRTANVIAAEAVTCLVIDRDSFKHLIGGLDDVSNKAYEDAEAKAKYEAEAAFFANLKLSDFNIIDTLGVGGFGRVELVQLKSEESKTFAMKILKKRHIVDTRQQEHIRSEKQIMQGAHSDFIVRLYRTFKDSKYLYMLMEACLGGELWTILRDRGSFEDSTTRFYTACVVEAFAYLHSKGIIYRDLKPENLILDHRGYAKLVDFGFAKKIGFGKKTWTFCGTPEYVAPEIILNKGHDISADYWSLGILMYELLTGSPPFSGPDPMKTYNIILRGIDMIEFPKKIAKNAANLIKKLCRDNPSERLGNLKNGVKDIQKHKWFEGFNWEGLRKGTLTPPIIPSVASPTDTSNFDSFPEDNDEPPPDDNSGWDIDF

[7] = Displacement of fluorescent-ARC-1063 from recombinant bovine PKAc by luminescence intensity assay; set-up: species or system Bos taurus
[8] = species: Bos taurus; test: Displacement of fluorescent-ARC-1063 from recombinant bovine PKAc by fluorescence anisotropy assay
[9] = Selectivity ratio of Kd for His6-tagged recombinant human ROCK2 to Kd for recombinant bovine PKAc
[10] = target: T1, Rho-associated protein kinase 2; test: Displacement of fluorescent-ARC-1063 from His6-tagged recombinant human ROCK2 by fluorescence anisotropy assay
Target sequence in this assay (O75116 whole entry, looked up): as the sequence (O75116 whole entry) above

[11] = Displacement of fluorescent-ARC-583 from recombinant bovine PKAc by fluorescence anisotropy assay; set-up: species or system Bos taurus
[12] = target: T1, Rho-associated protein kinase 2; test: Displacement of fluorescent-ARC-1042 from His6-tagged recombinant human ROCK2 by fluorescence anisotropy assay
Target sequence in this assay (O75116 whole entry): as the sequence (O75116 whole entry) above

[13] = Displacement of fluorescent-ARC-583/ARC-1042/ARC-1059 from recombinant bovine PKAc by fluorescence anisotropy assay; set-up: species or system Bos taurus
[14] = Displacement of fluorescent-ARC-583/ARC-1042/ARC-1059 from His6-tagged recombinant human PKCeta S472D mutant by fluorescence anisotropy assay

Sequence of Ribosomal protein S6 kinase alpha-5 (O75582 whole entry): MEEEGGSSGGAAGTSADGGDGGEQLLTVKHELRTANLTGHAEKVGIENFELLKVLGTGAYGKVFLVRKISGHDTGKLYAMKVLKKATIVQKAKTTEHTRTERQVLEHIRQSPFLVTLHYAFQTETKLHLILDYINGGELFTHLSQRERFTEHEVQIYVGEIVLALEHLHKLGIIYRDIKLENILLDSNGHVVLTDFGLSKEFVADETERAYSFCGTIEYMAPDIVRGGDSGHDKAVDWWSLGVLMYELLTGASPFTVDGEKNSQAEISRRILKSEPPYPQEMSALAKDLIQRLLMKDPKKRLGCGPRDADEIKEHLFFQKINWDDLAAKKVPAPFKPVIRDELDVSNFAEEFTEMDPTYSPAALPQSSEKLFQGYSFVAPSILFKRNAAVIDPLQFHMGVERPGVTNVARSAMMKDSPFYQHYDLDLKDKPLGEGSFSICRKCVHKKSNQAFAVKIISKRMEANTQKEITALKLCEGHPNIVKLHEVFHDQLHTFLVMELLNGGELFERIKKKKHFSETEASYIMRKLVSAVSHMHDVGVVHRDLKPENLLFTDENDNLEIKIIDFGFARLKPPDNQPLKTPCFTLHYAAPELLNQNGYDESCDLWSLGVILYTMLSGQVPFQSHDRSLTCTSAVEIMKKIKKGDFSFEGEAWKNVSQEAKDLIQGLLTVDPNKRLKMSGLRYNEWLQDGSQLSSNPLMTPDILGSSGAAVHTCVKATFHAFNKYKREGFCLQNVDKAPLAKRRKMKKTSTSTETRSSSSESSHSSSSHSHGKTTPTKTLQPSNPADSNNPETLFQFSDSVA
Sequence of RAC-gamma serine/threonine-protein kinase (Q9Y243 2-479 S472D limits assumed): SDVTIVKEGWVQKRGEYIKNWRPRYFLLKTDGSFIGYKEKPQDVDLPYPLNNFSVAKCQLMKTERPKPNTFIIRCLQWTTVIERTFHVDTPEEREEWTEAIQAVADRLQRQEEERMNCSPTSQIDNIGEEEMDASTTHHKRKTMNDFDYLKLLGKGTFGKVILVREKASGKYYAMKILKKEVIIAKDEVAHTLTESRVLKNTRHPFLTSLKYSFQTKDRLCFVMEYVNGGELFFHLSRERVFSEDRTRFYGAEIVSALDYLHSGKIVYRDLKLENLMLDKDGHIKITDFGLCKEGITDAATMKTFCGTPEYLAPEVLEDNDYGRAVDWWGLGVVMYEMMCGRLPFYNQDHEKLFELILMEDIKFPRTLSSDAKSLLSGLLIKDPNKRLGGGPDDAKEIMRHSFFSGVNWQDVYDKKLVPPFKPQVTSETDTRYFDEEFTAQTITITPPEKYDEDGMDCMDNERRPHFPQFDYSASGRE
Sequence of Ribosomal protein S6 kinase beta-1 (P23443 whole entry): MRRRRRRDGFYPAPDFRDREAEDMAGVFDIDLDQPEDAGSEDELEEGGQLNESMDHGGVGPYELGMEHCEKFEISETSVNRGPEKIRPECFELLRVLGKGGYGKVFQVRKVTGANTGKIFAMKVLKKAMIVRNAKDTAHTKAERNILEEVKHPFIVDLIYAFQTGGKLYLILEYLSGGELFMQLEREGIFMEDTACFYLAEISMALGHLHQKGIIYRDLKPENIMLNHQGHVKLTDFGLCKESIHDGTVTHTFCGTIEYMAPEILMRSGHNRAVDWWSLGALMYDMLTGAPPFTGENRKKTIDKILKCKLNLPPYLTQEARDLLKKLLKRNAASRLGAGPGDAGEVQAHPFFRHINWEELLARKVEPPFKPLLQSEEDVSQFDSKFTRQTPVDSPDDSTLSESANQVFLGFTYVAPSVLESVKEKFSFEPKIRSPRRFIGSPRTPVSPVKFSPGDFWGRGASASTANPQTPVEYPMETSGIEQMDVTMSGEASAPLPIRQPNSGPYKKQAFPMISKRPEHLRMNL

## NCCCC[C@@H](NC(=O)CCCCCCCN1CCCN(S(=O)(=O)c2cccc3cnccc23)CC1)C(=O)NCCCCCC(=O)N[C@H](CCCN=C(N)N)C(=O)N[C@H](CCCN=C(N)N)C(N)=O
[1]
  IC50: 3310 nM
  Kd: 860 nM
[2]
  IC50: 6760 nM
  Kd: 45 nM
[3]
  IC50: 4570 nM
  Kd: 1600 nM
[4]
  IC50: 631 nM
  Kd: 27 nM
[5]
  IC50: 9120 nM
  Kd: 7100 nM
[6]
  IC50: 1860 nM
  Kd: 630 nM

## N=C(N)NCCC[C@@H](NC(=O)[C@@H](CCCNC(=N)N)NC(=O)[C@@H](CCCNC(=N)N)NC(=O)[C@@H](CCCNC(=N)N)NC(=O)[C@@H](CCCNC(=N)N)NC(=O)[C@@H](CCCNC(=N)N)NC(=O)CCCCCNC(=O)[C@@H](CCCCN)NC(=O)CCCCCCCN1CCCN(S(=O)(=O)c2cccc3cnccc23)CC1)C(N)=O
[7]
  Kd: 3.3 nM
  pIC50: 5.01
[8]
  inhibition: Active
[2]
  IC50: 10.2 nM
  Kd: 0.02 nM
[9]
  Selectivity Index: 165
[10]
  inhibition: Active

## N=C(N)NCCC[C@@H](NC(=O)[C@@H](CCCNC(=N)N)NC(=O)CCCCCNC(=O)[C@@H](CCCCN)NC(=O)CNCC(=O)NCCNS(=O)(=O)c1cccc2cnccc12)C(N)=O
[11]
  Kd: 2500 nM
  pIC50: 4.78
[12]
  pIC50: > 4.5

## N=C(N)NCCC[C@@H](NC(=O)[C@@H](CCCNC(=N)N)NC(=O)[C@@H](CCCNC(=N)N)NC(=O)[C@@H](CCCNC(=N)N)NC(=O)[C@@H](CCCNC(=N)N)NC(=O)[C@@H](CCCNC(=N)N)NC(=O)CCCCCNC(=O)[C@@H](CCCCN)NC(=O)CNCC(=O)NCCNS(=O)(=O)c1cccc2cnccc12)C(N)=O
[11]
  Kd: 130 nM
  pIC50: 6.07
[12]
  IC50: 34.7 nM
  Kd: 1.5 nM

## N=C(N)NCCC[C@@H](NC(=O)[C@@H](CCCNC(=N)N)NC(=O)CCCCCNC(=O)[C@H](CCCCN)NC(=O)CNCC(=O)NCCNS(=O)(=O)c1cccc2cnccc12)C(N)=O
[11]
  pIC50: > 4.5
[12]
  IC50: 16200 nM
  Kd: 690 nM

## N=C(N)NCCC[C@@H](NC(=O)[C@@H](CCCNC(=N)N)NC(=O)[C@@H](CCCNC(=N)N)NC(=O)[C@@H](CCCNC(=N)N)NC(=O)[C@@H](CCCNC(=N)N)NC(=O)[C@@H](CCCNC(=N)N)NC(=O)CCCCCNC(=O)[C@H]1O[C@@H](n2cnc3c(N)ncnc32)[C@H](O)[C@@H]1O)C(N)=O
[7]
  Kd: 0.25 nM
  pIC50: 6.12

## N=C(N)NCCC[C@@H](NC(=O)[C@@H](CCCNC(=N)N)NC(=O)[C@@H](CCCNC(=N)N)NC(=O)[C@@H](CCCNC(=N)N)NC(=O)[C@@H](CCCNC(=N)N)NC(=O)[C@@H](CCCNC(=N)N)NC(=O)CCCCCNC(=O)[C@@H](CCCCN)NC(=O)CCCCCNC(=O)[C@H]1O[C@@H](n2cnc3c(N)ncnc32)[C@H](O)[C@@H]1O)C(N)=O ({Adenosine(5'-uronoyl)-Ahx}-[dK][Ahx][dR][dR][dR][dR][dR][dR]-NH2)
[7]
  Kd: 0.26 nM
  pIC50: 6.12
[2]
  IC50: 10.5 nM
  Kd: 0.021 nM
[9]
  Selectivity Index: 12

## NCCCC[C@@H](NC(=O)CCCCCNC(=O)c1ccc(-c2ccnc(N)n2)s1)C(=O)NCCCCCC(=O)N[C@H](CCCN=C(N)N)C(=O)N[C@H](CCCN=C(N)N)C(=O)N[C@H](CCCN=C(N)N)C(=O)N[C@H](CCCN=C(N)N)C(=O)N[C@H](CCCN=C(N)N)C(=O)N[C@H](CCCN=C(N)N)C(N)=O ({X1-Ahx}-[dK][Ahx][dR][dR][dR][dR][dR][dR]-NH2)
[2]
  IC50: 2.75 nM
  Kd: 0.0056 nM

## O=S(=O)(NCCNC/C=C/c1ccc(Br)cc1)c1cccc2cnccc12
[7]
  Kd: 17 nM
  pIC50: 4.3

## O=S(=O)(c1cccc2cnccc12)N1CCCNCC1 [FASUDIL]
[7]
  Kd: 420 nM
  pIC50: 4.26

## N=C(N)NCCC[C@@H](NC(=O)[C@@H](CCCNC(=N)N)NC(=O)CNCC(=O)NCCNS(=O)(=O)c1cccc2cnccc12)C(N)=O
[12]
  pIC50: > 4.5

## NCCCC[C@@H](NC(=O)CCCCCNC(=O)[C@H]1O[C@@H](n2cnc3c(N)ncnc32)[C@H](O)[C@@H]1O)C(=O)NCCCCCC(=O)N[C@H](CCCN=C(N)N)C(=O)N[C@H](CCCN=C(N)N)C(N)=O
[2]
  IC50: 977 nM
  Kd: 6.4 nM
[12]
  IC50: 162 nM
  Kd: 7 nM

## N=C(N)NCCC[C@@H](NC(=O)[C@@H](CCCNC(=N)N)NC(=O)CCCCCNC(=O)[C@@H](CCCCN)NC(=O)CCCCCNC(=O)[C@H]1O[C@@H](n2cnc3c(N)ncnc32)[C@H](O)[C@@H]1O)C(N)=O
[7]
  Kd: 4.5 nM
  pIC50: 4.87
[11]
  Kd: 8.9 nM
  pIC50: 7.22
[9]
  Selectivity Index: 0.7

## N=C(N)NCCC[C@@H](NC(=O)[C@@H](CCCNC(=N)N)NC(=O)[C@@H](CCCNC(=N)N)NC(=O)[C@@H](CCCNC(=N)N)NC(=O)[C@@H](CCCNC(=N)N)NC(=O)[C@@H](CCCNC(=N)N)NC(=O)CNCC(=O)NCCNS(=O)(=O)c1cccc2cnccc12)C(N)=O
[11]
  Kd: 120 nM
  pIC50: 6.1
[12]
  IC50: 151 nM
  Kd: 6.4 nM

## N=C(N)NCCC[C@@H](NC(=O)[C@@H](CCCNC(=N)N)NC(=O)[C@@H](CCCNC(=N)N)NC(=O)[C@@H](CCCNC(=N)N)NC(=O)[C@@H](CCCNC(=N)N)NC(=O)[C@@H](CCCNC(=N)N)NC(=O)CCCCCNC(=O)[C@@H](CCCCN)NC(=O)CCCCCNC(=O)c1ccc(-c2ccnc(N)n2)s1)C(N)=O ({X1-Ahx}-[dK][Ahx][dR][dR][dR][dR][dR][dR]-NH2)
[7]
  Kd: 0.056 nM
  pIC50: 6.78
[9]
  Selectivity Index: 10

## N=C(N)NCCC[C@@H](NC(=O)[C@@H](CCCNC(=N)N)NC(=O)[C@@H](CCCNC(=N)N)NC(=O)[C@@H](CCCNC(=N)N)NC(=O)[C@@H](CCCNC(=N)N)NC(=O)[C@@H](CCCNC(=N)N)NC(=O)CCCCCNC(=O)[C@@H](CCCCN)NC(=O)CCNC(=O)CNCC(=O)NCCNS(=O)(=O)c1cccc2cnccc12)C(N)=O
[11]
  Kd: 24 nM
  pIC50: 6.79
[12]
  IC50: 17.8 nM
  Kd: 0.7 nM

## N=C(N)NCCC[C@@H](NC(=O)[C@@H](CCCNC(=N)N)NC(=O)[C@@H](CCCNC(=N)N)NC(=O)[C@@H](CCCNC(=N)N)NC(=O)[C@@H](CCCNC(=N)N)NC(=O)[C@@H](CCCNC(=N)N)NC(=O)CCCCCNCCNS(=O)(=O)c1cccc2cnccc12)C(N)=O
[11]
  Kd: 0.53 nM
  pIC50: 8.26
[1]
  IC50: 6.46 nM
  Kd: < 1 nM
[13]
  Kd: < 1 nM
  pIC50: 8.26
[3]
  IC50: 81.3 nM
  Kd: 26 nM
[4]
  IC50: 2.45 nM
  Kd: < 0.5 nM
[14]
  Kd: 980 nM
  pIC50: 5.76
[5]
  IC50: 72.4 nM
  Kd: 55 nM
[6]
  IC50: 41.7 nM
  Kd: 13 nM
[12]
  IC50: 2.45 nM
  Kd: < 0.5 nM

## N=C(N)NCCC[C@@H](NC(=O)[C@@H](CCCNC(=N)N)NC(=O)CCCCCNC(=O)[C@@H](CCCCN)NC(=O)CCCCCCCN1CCCN(S(=O)(=O)c2cccc3cnccc23)CC1)C(N)=O
[7]
  Kd: 25 nM
  pIC50: 4.12
[13]
  Kd: 83 nM
  pIC50: 6.16
[14]
  pIC50: > 5
[9]
  Selectivity Index: 0.56
